Results on twelve compounds are retold here after patent US10150771B2, “Triazolopyrazinones as PDE1 inhibitors” (H. Lundbeck A/S, priority 2014, dated 2018).

SMILES strings stand for the structures.

Holding throughout (assay type): biochemical
Assay [1] deals with PDE1C (Homo sapiens, UniProt Q14123). In words: PDE1 inhibition assay (SPA), PDE1C. Particulars: concentration required to reach 50% inhibition of the enzyme; 15 nM tritium labelled cAMP; read-out: PDE1C inhibition (nM or %): IC50. The protocol:
(§1) PDE1 Inhibition Assay PDE1A, PDE1B and PDE1C assays were performed as follows: the assays were performed in 60 μL samples containing a fixed amount of the PDE1 enzym1 (sufficient to convert 20-25% of the cyclic nucleotide substrate), a buffer (50 mM HEPES pH 7.6; 10 mM MgCl2; 0.02% Tween20), 0.1 mg/ml BSA, 15 nM tritium labelled cAMP and varying amounts of inhibitors. Reactions were initiated by addition of the cyclic nucleotide substrate, and reactions were allowed to proceed for 1 h at room temperature before being terminated through mixing with 20 μL (0.2 mg) yttrium silicate SPA beads (PerkinElmer). The beads were allowed to settle for 1 h in the dark before the plates were counted in a Wallac 1450 Microbeta counter. The measured signals were converted to activity relative to an uninhibited control (100%) and IC50 values were calculated using XIFit (model 205, IDBS).

The target of assay [2] is PDE1B (Homo sapiens, UniProt Q01064). The assay can be described thus: PDE1 inhibition assay (SPA), PDE1B. Particulars: for IC50: concentration required to reach 50% inhibition of the enzyme, 15 nM tritium labelled cAMP, read-out: PDE1B inhibition (nM or %): IC50; for inhibition at 10 µM: 1 h, % inhibition of the enzyme at a concentration of 10 micro molar of the compound, read-out: PDE1B inhibition (nM or %): % inhib. The protocol: as §1

Assay [3] concerns the target PDE1A (Homo sapiens, UniProt P54750). In words: PDE1 inhibition assay (SPA), PDE1A. Particulars: for IC50: concentration required to reach 50% inhibition of the enzyme, 15 nM tritium labelled cAMP, read-out: PDE1A inhibition (nM or %): IC50. The procedure:
as §1

Chain of PDE1A (P54750 whole entry): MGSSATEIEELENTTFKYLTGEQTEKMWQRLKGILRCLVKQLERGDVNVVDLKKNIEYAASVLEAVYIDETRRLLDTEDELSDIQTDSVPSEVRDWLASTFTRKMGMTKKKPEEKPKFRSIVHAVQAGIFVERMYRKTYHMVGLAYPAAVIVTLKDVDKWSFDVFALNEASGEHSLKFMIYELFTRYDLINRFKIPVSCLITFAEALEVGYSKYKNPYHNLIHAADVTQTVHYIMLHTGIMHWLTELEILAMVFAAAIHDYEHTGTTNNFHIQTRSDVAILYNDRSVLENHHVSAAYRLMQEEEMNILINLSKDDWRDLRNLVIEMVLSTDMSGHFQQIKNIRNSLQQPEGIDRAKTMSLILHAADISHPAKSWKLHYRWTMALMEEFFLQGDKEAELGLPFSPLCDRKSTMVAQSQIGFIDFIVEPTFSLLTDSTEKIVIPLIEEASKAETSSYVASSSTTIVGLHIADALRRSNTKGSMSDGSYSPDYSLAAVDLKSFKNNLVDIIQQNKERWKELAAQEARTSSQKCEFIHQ
Chain of PDE1B (Q01064 whole entry): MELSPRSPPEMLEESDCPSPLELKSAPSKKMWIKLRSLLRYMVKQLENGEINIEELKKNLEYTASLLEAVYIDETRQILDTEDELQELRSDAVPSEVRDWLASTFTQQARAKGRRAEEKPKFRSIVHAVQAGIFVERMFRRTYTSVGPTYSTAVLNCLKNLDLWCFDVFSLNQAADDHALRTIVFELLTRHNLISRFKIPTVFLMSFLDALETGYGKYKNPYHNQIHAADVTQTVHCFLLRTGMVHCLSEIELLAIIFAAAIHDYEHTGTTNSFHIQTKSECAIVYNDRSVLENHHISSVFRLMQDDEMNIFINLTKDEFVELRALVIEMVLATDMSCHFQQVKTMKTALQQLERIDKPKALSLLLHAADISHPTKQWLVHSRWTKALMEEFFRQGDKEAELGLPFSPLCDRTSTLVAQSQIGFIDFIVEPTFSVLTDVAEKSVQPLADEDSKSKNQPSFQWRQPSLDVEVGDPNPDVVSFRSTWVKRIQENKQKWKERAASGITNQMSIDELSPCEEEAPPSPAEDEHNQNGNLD
Chain of PDE1C (Q14123 whole entry): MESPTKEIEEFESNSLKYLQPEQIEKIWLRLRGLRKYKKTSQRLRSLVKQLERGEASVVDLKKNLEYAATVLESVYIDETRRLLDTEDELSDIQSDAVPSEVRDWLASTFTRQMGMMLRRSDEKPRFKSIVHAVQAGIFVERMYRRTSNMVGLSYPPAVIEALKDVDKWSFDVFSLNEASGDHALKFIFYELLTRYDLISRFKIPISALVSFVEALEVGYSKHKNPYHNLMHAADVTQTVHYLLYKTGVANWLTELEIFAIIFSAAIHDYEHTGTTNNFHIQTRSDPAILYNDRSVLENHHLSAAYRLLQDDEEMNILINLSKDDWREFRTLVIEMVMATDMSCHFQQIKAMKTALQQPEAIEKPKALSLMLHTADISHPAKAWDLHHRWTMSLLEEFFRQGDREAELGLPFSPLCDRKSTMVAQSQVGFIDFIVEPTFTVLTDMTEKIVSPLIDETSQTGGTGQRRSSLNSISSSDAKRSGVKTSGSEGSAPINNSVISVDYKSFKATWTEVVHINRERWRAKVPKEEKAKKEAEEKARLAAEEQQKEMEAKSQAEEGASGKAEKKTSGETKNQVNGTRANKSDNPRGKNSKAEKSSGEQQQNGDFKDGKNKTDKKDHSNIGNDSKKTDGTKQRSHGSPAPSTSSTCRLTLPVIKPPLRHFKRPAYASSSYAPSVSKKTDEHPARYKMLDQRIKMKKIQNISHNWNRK

As to `CC(F)(F)c1nnc2c(=O)n(Cc3cccc(F)c3)ccn12` [3-(1,1-Difluoroethyl)-7-(3-fluorobenzyl)-[1,2,4]triazolo[4,3-a]pyrazin-8(7H)-one], the IC50 (commonly the concentration that inhibits the measured activity by half) in assay [1] came to 550 nM; in assay [2], 2700 nM; in assay [3], 2500 nM.
On to `Cc1cccc(Cc2cn3c(C4CCOCC4)nnc3c(=O)n2CC2CCCCC2)c1` [7-(cyclohexylmethyl)-6-(3-methylbenzyl)-3-(tetrahydro-2H-pyran-4-yl)-[1,2,4]triazolo[4,3-a]pyrazin-8(7H)-one], for which the results for the IC50 in assay [1], in assay [2] and in assay [3] were 1 nM, 3 nM and 2 nM, respectively.
The corresponding values for `CCCc1nnc2c(=O)n(Cc3cccc(F)c3)c(CC)cn12` [6-ethyl-7-(3-fluorobenzyl)-3-propyl-[1,2,4]triazolo[4,3-a]pyrazin-8(7H)-one] are 50 nM, 180 nM and 117 nM.
As for `O=c1c2nnc(C3CCCCO3)n2ccn1Cc1cccc(F)c1` (single isomer, unassigned) [7-(3-Fluorobenzyl)-3-(tetrahydro-2H-pyran-2-yl)-[1,2,4]triaz] [7-(3-Fluorobenzyl)-3-(tetrahydro-2H-pyran-2-yl)-[1,2,4]triazolo[4,3-a]pyrazin-8(7H)-one], the IC50 in assay [3] worked out at 3200 nM.
As for `O=c1c2nnc(CC3CCCO3)n2ccn1Cc1cccc(F)c1` (single isomer, unassigned) [7-(3-Fluorobenzyl)-3-((tetrahydrofuran-2-yl)methyl)-[1,2,4]triazolo[4,3-a]pyrazin-8(7H)-one], in assay [2], the inhibition (usually the percentage by which the read-out fell short of the control) at 10 µM came out at 67% and the IC50 came to 3700 nM. Moreover, the inhibition at 10 µM in assay [3] (1 h, % inhibition of the enzyme at a concentration of 10 micro molar of the compound, read-out: PDE1A inhibition (nM or %): % inhib) came to 67%.
On to `O=c1c2nnc(C3CCCOC3)n2ccn1Cc1cccc(F)c1` (single isomer, unassigned) [7-(3-Fluorobenzyl)-3-(tetrahydro-2H-pyran-3-yl)-[1,2,4]triaz] [7-(3-Fluorobenzyl)-3-(tetrahydro-2H-pyran-3-yl)-[1,2,4]triazolo[4,3-a]pyrazin-8(7H)-one], for which, in assay [3], the IC50 was determined as 1800 nM.
With `O=c1c2nnc(C3CCCOC3)n2ccn1Cc1cccc(F)c1` (single isomer, unassigned) [7-(3-Fluorobenzyl)-3-(tetrahydro-2H-pyran-3-yl)-[1,2,4]triazolo[4,3-a]pyrazin-8(7H)-one], the IC50 in assay [3] is 1800 nM.
Regarding `O=c1c2nnc(CC3CCCO3)n2ccn1Cc1cccc(F)c1` (single isomer, unassigned) [7-(3-Fluorobenzyl)-3-((tetrahydrofuran-2-yl)methyl)-[1,2,4]t] [7-(3-Fluorobenzyl)-3-((tetrahydrofuran-2-yl)methyl)-[1,2,4]triazolo[4,3-a]pyrazin-8(7H)-one], in assay [3] (% inhibition of the enzyme at a concentration of 10 micro molar of the compound), the “PDE1A inhibition (nM or %): % inhib” value worked out at 49%.
As to `CCCc1nnc2c(=O)n(CC3CCOC3)ccn12` (single isomer, unassigned) [3-Propyl-7-((tetrahydrofuran-3-yl)methyl)-[1,2,4]triazolo[4,3-a]pyrazin-8(7H)-one], in assay [2], the inhibition at 10 µM was 67% and the IC50 came out at 4000 nM.
Regarding `O=c1c2nnc(C3CCCCO3)n2ccn1Cc1cccc(F)c1` (single isomer, unassigned) [7-(3-Fluorobenzyl)-3-(tetrahydro-2H-pyran-2-yl)-[1,2,4]triazolo[4,3-a]pyrazin-8(7H)-one], the IC50 in assay [3] came to 3200 nM.
For the compound `O=c1c2nnc(C3CCOC3)n2ccn1Cc1cccc(F)c1` (single isomer, unassigned) [7-(3-Fluorobenzyl)-3-(tetrahydrofuran-3-yl)-[1,2,4]triazolo[4,3-a]pyrazin-8(7H)-one], the IC50 in assay [1] worked out at 240 nM.
On the same count and under the same terms, with `O=c1c2nnc(C3CCOC3)n2ccn1Cc1cccc(F)c1` (single isomer, unassigned) [7-(3-Fluorobenzyl)-3-(tetrahydrofuran-3-yl)-[1,2,4]triazolo[] [7-(3-Fluorobenzyl)-3-(tetrahydrofuran-3-yl)-[1,2,4]triazolo[4,3-a]pyrazin-8(7H)-one] the figure was 240 nM.
